According to ChEMBL document CHEMBL1201862, “PubChem BioAssay data set” (2004):
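1) Cells in 96-well plates. 2) Compound, 48 h, 5 concentrations. 3) Linear interpolation between surrounding doses. 4) Unreached endpoint = highest concentration. The concentration for 50% growth inhibition is given as GI50.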 The source made the active and inactive calls. No stated cut-off is given here; in the data, active = GI50 up to about 1.1 µM and inactive = higher.

Assays:
Experiment in all cases: NCI tumour cell line growth inhibition, 48 h
OVCAR-5 = tested on: OVCAR-5
NCI-H226 = tested on: NCI-H226
T47D = tested on: T47D
SF-539 = tested on: SF-539
MDA-MB-231 = tested on: MDA-MB-231
TK-10 = tested on: TK-10
HCT-15 = tested on: HCT-15
PC-3 = tested on: PC-3
MCF7 = tested on: MCF7
HL-60 = tested on: HL-60
SN12C = tested on: SN12C
HT-29 = tested on: HT-29
NCI-H23 = tested on: NCI-H23
CCRF-CEM = tested on: CCRF-CEM
SK-MEL-28 = tested on: SK-MEL-28
OVCAR-4 = tested on: OVCAR-4
UO-31 = tested on: UO-31
MDA-N = tested on: MDA-N
SR = tested on: SR
BT-549 = tested on: BT-549

| SMILES | GI50 (OVCAR-5) | GI50 (NCI-H226) | GI50 (T47D) | GI50 (SF-539) | GI50 (MDA-MB-231) | GI50 (TK-10) | GI50 (HCT-15) [µM] | GI50 (PC-3) | GI50 (MCF7) | GI50 (HL-60) | GI50 (SN12C) | GI50 (HT-29) | GI50 (NCI-H23) | GI50 (CCRF-CEM) | GI50 (SK-MEL-28) | GI50 (OVCAR-4) | GI50 (UO-31) | GI50 (MDA-N) | GI50 (SR) | GI50 (BT-549) |
| --- | --- | --- | --- | --- | --- | --- | --- | --- | --- | --- | --- | --- | --- | --- | --- | --- | --- | --- | --- | --- |
| Cc1ccc(NC(=O)c2cccc(OP(=O)(O)Nc3ccc(C)cc3)c2)cc1 | > 100 µM (inactive) | > 100 µM (inactive) | 79.3 µM (inactive) | > 100 µM (inactive) | 74.1 µM (inactive) | > 100 µM (inactive) | > 100 | > 100 µM (inactive) | > 100 µM (inactive) | > 100 µM (inactive) | > 100 µM (inactive) | > 100 µM (inactive) | > 100 µM (inactive) | > 100 µM (inactive) | > 100 µM (inactive) | 72.8 µM (inactive) | 88.1 µM (inactive) | 63.5 µM (inactive) | 32.4 µM (inactive) | > 100 µM (inactive) |
| Cc1cccc2c(NCCCN(C)C)c3c([N+](=O)[O-])ccc(C)c3nc12 | 0.264 µM (active) | 0.194 µM (active) | 0.0879 µM (active) | 0.263 µM (active) | 0.217 µM (active) | 0.252 µM (active) | 0.0435 | 0.0494 µM (active) | < 0.0161 µM (active) | 0.203 µM (active) | 0.221 µM (active) | 0.0809 µM (active) | 0.034 µM (active) | 0.423 µM (active) | 2.32 µM (inactive) | 0.0628 µM (active) | 0.216 µM (active) | 0.196 µM (active) | < 0.0154 µM (active) | 0.256 µM (active) |
| COC1(OC)C=CC(=O)C=C1 | 10.4 µM (inactive) | 2.61 µM (inactive) | 3.22 µM (inactive) | 1.74 µM (inactive) | 2.9 µM (inactive) | 2.69 µM (inactive) | 4.17 | 3.27 µM (inactive) | 1.3 µM (inactive) | 3.15 µM (inactive) | 7.48 µM (inactive) | 3.11 µM (inactive) | 2.66 µM (inactive) | 0.446 µM (active) | 1.85 µM (inactive) | 3.05 µM (inactive) | 1.89 µM (inactive) | 7.41 µM (inactive) | 0.843 µM (active) | 3.55 µM (inactive) |
| COC(=O)c1c2c(cc3c1CC1(Cc4ccccc4C1)C3)CCC2 | 25.2 µM (inactive) | 31.7 µM (inactive) | 15.8 µM (inactive) | 39.5 µM (inactive) | 14.8 µM (inactive) | 61.8 µM (inactive) | 23 | 13.8 µM (inactive) | 6.38 µM (inactive) | 17.3 µM (inactive) | 16.9 µM (inactive) | 13.8 µM (inactive) | 31.3 µM (inactive) | 17.2 µM (inactive) | 24.2 µM (inactive) | 37.8 µM (inactive) | 13 µM (inactive) | 6.27 µM (inactive) | 16.5 µM (inactive) | 20.9 µM (inactive) |
| C/C=C/[C@@H]1O[C@H](CC#C[Si](C)(C)C)[C@@]2(C=O)C(C)=CC[C@H](C(C)C)[C@@H]12 | 21 µM (inactive) | 20.3 µM (inactive) | 30.8 µM (inactive) | 21.6 µM (inactive) | 17.3 µM (inactive) | 15 µM (inactive) | 21.1 | 15.4 µM (inactive) | 22.5 µM (inactive) | 3.81 µM (inactive) | 17.7 µM (inactive) | 19.5 µM (inactive) | 22.2 µM (inactive) | 2.41 µM (inactive) | 20.3 µM (inactive) | 19.3 µM (inactive) | 1.61 µM (inactive) | 19.4 µM (inactive) | 2.44 µM (inactive) | 22.4 µM (inactive) |
| N#C/C=C(/NC(=O)Nc1ccccc1)N1CCCC1 | > 65.6 µM (inactive) | > 42 µM (inactive) | > 85.1 µM (inactive) | > 47.4 µM (inactive) | > 55.8 µM (inactive) | > 36.2 µM (inactive) | > 56.2 | > 35.3 µM (inactive) | > 33.1 µM (inactive) | > 100 µM (inactive) | > 86.3 µM (inactive) | > 72.6 µM (inactive) | > 49.3 µM (inactive) | > 100 µM (inactive) | > 47.9 µM (inactive) | 34.6 µM (inactive) | > 89.3 µM (inactive) | > 100 µM (inactive) | > 100 µM (inactive) | > 67.5 µM (inactive) |
| O=C1CSC(c2ccccc2O)N1c1ccc(-n2c(-c3ccccc3)nc3ccccc3c2=O)cc1 (stereo not given) | 30.8 µM (inactive) | 25 µM (inactive) | 14.9 µM (inactive) | 16.6 µM (inactive) | 4.76 µM (inactive) | 48.2 µM (inactive) | 6.84 | 12.9 µM (inactive) | 28.1 µM (inactive) | 21.6 µM (inactive) | 30.3 µM (inactive) | 27.1 µM (inactive) | 31.6 µM (inactive) | 14.7 µM (inactive) | 28.4 µM (inactive) | 30.4 µM (inactive) | 18.9 µM (inactive) | 28.2 µM (inactive) | 21.4 µM (inactive) | 21.6 µM (inactive) |
| C=C1C(=O)O[C@@H]2C(=O)[C@@H](C)[C@@H]3C=CC(=O)[C@@]3(C)[C@@H](OC(=O)/C(C)=C\C)[C@H]12 [MULTISTATIN] | 2.22 µM (inactive) | 2.38 µM (inactive) | 0.483 µM (active) | 1.84 µM (inactive) | 1.88 µM (inactive) | 0.538 µM (active) | 0.284 | 2.29 µM (inactive) | 0.394 µM (active) | 0.132 µM (active) | 1.42 µM (inactive) | 0.371 µM (active) | 2.88 µM (inactive) | 0.168 µM (active) | 0.278 µM (active) | 5.04 µM (inactive) | 1.21 µM (inactive) | 0.675 µM (active) | 0.223 µM (active) | 0.689 µM (active) |
| NC(=O)NC(=O)CCC(NS(=O)(=O)c1ccccc1)C(=O)NC(N)=O (stereo not given) | > 100 µM (inactive) | > 100 µM (inactive) | > 100 µM (inactive) | > 100 µM (inactive) | > 100 µM (inactive) | > 100 µM (inactive) | > 100 | > 100 µM (inactive) | > 100 µM (inactive) | > 100 µM (inactive) | > 100 µM (inactive) | > 100 µM (inactive) | > 100 µM (inactive) | > 100 µM (inactive) | > 100 µM (inactive) | > 100 µM (inactive) | > 100 µM (inactive) | > 100 µM (inactive) | > 100 µM (inactive) | > 100 µM (inactive) |
| CCN(CC)Cc1cc(/N=N\c2c(O)ccc3c(/N=N\c4ccc(O)c(CN(CC)CC)c4)c(O)ccc23)ccc1O | 6.49 µM (inactive) | 4.54 µM (inactive) | 10.3 µM (inactive) | 2.73 µM (inactive) | 2.05 µM (inactive) | 6.89 µM (inactive) | 1.68 | 5.11 µM (inactive) | 2.39 µM (inactive) | 1.8 µM (inactive) | 3.92 µM (inactive) | 2.57 µM (inactive) | 3.56 µM (inactive) | 2.44 µM (inactive) | 5.96 µM (inactive) | 1.77 µM (inactive) | 2 µM (inactive) | 4.8 µM (inactive) | 0.993 µM (active) | 4.92 µM (inactive) |
| O=C(CN1CCN(C(=O)OCc2ccccc2)CCN(CC(=O)N2CCCCC2)CCN(C(=O)OCc2ccccc2)CC1)N1CCCCC1 | 19.6 µM (inactive) | 5.82 µM (inactive) | 17 µM (inactive) | 14.6 µM (inactive) | 14.2 µM (inactive) | 11.5 µM (inactive) | 17.9 | 12.6 µM (inactive) | 17.1 µM (inactive) | 10.6 µM (inactive) | 11.6 µM (inactive) | 7.46 µM (inactive) | 20.7 µM (inactive) | 6.44 µM (inactive) | 14.7 µM (inactive) | 4.8 µM (inactive) | 3.19 µM (inactive) | 14.8 µM (inactive) | 3.3 µM (inactive) | 23.1 µM (inactive) |
